SMILES strings stand for the structures.

Assay [1] deals with T1, human endothelin-A (ETA) receptors (Homo sapiens, UniProt P25101).
T1 construct: made in house; host or cells: Sf9 insect cells (membrane fractions)
T1 sequence (P25101 21-427): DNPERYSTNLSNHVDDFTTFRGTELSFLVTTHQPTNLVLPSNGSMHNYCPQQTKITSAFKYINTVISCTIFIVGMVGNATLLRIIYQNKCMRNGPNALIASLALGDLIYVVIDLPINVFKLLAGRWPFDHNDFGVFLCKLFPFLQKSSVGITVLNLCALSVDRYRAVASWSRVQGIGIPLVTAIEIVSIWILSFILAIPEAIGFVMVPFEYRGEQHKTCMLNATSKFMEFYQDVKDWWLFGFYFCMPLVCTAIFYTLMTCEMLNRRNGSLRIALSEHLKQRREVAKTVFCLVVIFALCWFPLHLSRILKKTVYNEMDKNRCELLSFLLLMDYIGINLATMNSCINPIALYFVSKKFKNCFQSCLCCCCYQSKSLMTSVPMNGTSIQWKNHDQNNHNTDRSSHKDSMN
The assay is described as follows: Binding Test to ETA receptor expressed in an insect cell Sf9 ([125I]endothelin-1 displacement). As to conditions: Sf9 membrane fractions; [125I]endothelin-1; 25°C, 60 minutes; concentration causing PMB=50%; read-out: IC50 value: µM Human endotherin-A receptor. As to the method: Binding Test to ETA receptor expressed in an insect cell Sf9:
Endothelin (ET) receptors were prepared by diluting fractions of insect cell (Sf9) membrane having human endothelin-A (ETA) receptors expressed, with an assay buffer {20 mM Tris-HCl, 2 mM EGTA (ethyleneglycol bls(2-aminoethylether) tetra acetic acid), 5 mM magnesium acetate, 0.1% BSA (bovine serum albumin), 0.03% NaN3, 0.5 mM PMSF (phenyl methyl sulfonyl fluoride), 20 µg/ml leupeptin, 4 µg/ml E-64 (products of the Peptide Institute, Japan), 1 µg/ml pepstatin, (pH 7.2)} respectively in a concentration of 1.4 µg/ml in the former case and 0.7 µg/ml in the latte case.
To 100 µl of each portion was added 5 nM[^125I] endothelin-1 (2 µl). A dimethylsulfoxide solution (3 µl) of the test compound was added thereto and incubated at 25°C for 60 minutes.
And, to determine the maximum binding amount (B0) and non-specific binding amount (NSB), lots to which a dimethyl sulfoxide solution (3 µl) or a dimethyl sulfoxide solution (3 µl) containing endothelin-1 (10^-3M) had been added, were also incubated.
These lots were supplemented with 0.05% CHAPS(3-[(3-chloroamidopropyl)dimethylammonio]-1-propanesulfonate)-assay buffer (1.5 ml), subjected to filtration through a glass fiber filter GF/F (trade name; product of Whatman Ltd. (England)), and then washed with the same buffer (1.5 ml)).
(§1) Radioactivity on the filter was counted in a gamma-counter to determine the Percent Maximum Binding (PMB) in accordance with the aforesaid calculation formula. The concentration causing PMB=50% was determined as IC50 value.

The target of assay [2] is T2, human endothelin-B (ETB) receptors (Homo sapiens, UniProt P24530).
T2 construct: made in house; host or cells: Sf9 insect cells (membrane fractions)
T2 sequence (P24530 27-442): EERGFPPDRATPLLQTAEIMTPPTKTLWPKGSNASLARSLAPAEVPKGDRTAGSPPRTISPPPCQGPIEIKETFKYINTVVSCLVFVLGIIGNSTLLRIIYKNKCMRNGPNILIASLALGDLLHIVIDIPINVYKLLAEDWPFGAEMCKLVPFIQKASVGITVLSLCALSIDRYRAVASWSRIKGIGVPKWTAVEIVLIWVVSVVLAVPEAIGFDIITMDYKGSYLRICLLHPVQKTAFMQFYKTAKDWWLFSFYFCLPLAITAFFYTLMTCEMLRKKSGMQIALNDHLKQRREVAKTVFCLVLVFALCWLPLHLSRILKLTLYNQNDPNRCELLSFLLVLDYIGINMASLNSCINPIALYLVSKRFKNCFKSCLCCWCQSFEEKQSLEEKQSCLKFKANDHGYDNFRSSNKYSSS
The assay can be described thus: Binding Test to ETB receptor expressed in an insect cell Sf9 ([125I]endothelin-1 displacement). The following applies: Sf9 membrane fractions; [125I]endothelin-1; 25°C, 60 minutes; concentration causing PMB=50%; read-out: IC50 value: µM Human endotherin-B receptor. The procedure: Binding Test to ETB receptor expressed in an insect cell Sf9:
Endothelin (ET) receptors were prepared by diluting fractions of insect cell (Sf9) membrane having human endothelin-B (ETB) receptors expressed, with an assay buffer {200 mM Tris-HCl, 2 mM EGTA (ethylenegiycol bis(2-aminoethylether) tetra acetic acid), 5 mM magnesium acetate, 0.1% BSA (bovine serum albumin), 0.03% NaN3, 0.5 mM PMSF(phenyl methyl sulfonyl fluoride), 20 µg/ml leupeptin, 4 µg/ml E-64 (products of the Peptide Institute), 1 µg/ml pepstatin, (pH 7.2)} respectively in a concentration of 1.4 µg/ml in the former case and 0.7 µg/ml in the latter case.
To 100 µl of each portion was added 5 nM[^125I] endothelin-1 (2 µl). A dimethylsulfoxide solution (3 µl) of the sample was added thereto and incubated at 25°C fpr 60 minutes.
And, to determine the maximum binding amount (B0) and non-specific binding amount (NSB), lots to which a dimethyl sulfoxide solution (3 µl) or a dimethyl sulfoxide solution (3 µl) containing endothelin-1 (10^-5M) had been added, were also incubated.
These lots were supplemented with 0.05% CHAPS(3-[(3-chloroamidopropyl)dimethylammonio]-1-propanesulfonate)-assay buffer (1.5 ml), subjected to filtration through a glass fiber filter GF/F (trade name; product of Whatman Ltd. (England)), and then washed with the same buffer (1.5 ml).
as §1

As for `CCCOc1ccc(-c2sc3c(c2CNS(C)(=O)=O)c(=O)n(CC(=O)O)c(=O)n3Cc2ccccc2SC)cc1` [11(7), 2,4(1H,3H)-Dioxo-6-(4-propoxyphenyl)-1-(2-methylthiobenzyl)-5-(methanesulfonamidomethyl)-thieno[2,3-d]pyrimidine-3-acetic acid], the IC50 in assay [1] was 0.018 µM; in assay [2], 0.22 µM.

For the molecule `CCCOc1ccc(-c2sc3c(c2CNS(=O)(=O)CC)c(=O)n(CC(=O)O)c(=O)n3Cc2ccccc2SC)cc1` [11(9), 2,4(1H,3H)-Dioxo-6-(4-propoxyphenyl)-1-(2-methylthiobenzyl)-5-(ethanesulfonamidomethyl)-thieno[2,3-d]pyrimidine-3-acetic acid], the concentration for half-maximal inhibition (IC50) is 0.015 µM in assay [1] and 0.11 µM in assay [2].

Turning to `COCOc1ccc(-c2sc3c(c2CNS(=O)(=O)C(C)C)c(=O)n(CC(=O)O)c(=O)n3Cc2ccccc2SC)cc1` [11(11), 2,4(1H,3H)-Dioxo-6-(4-methoxymethoxyphenyl)-1-(2-methylthiobenzyl)-5-(isopropanesulfonamidomethyl)thieno[2,3-d]pyrimidine-3-acetic acid], the values for the half-maximal inhibitory concentration (IC50) in assay [1] and in assay [2] were 0.0066 µM and 0.09 µM, respectively.

For `CCCOc1ccc(-c2sc3c(c2CNS(=O)(=O)C(C)C)c(=O)n(CC(=O)O)c(=O)n3Cc2ccccc2SC)cc1` [11(15), 2,4(1H,3H)-Dioxo-6-(4-propoxyphenyl)-1-(2-methylthiobenzyl)-5-(isopropanesulfonamidomethyl)-thieno[2,3-d]pyrimidine-3-acetic acid], the 50% inhibitory concentration (IC50) in assay [1] came out at 0.011 µM; in assay [2] it was 0.094 µM.

As for `CCCS(=O)(=O)NCc1c(-c2ccc(OCOC)cc2)sc2c1c(=O)n(CC(=O)O)c(=O)n2Cc1ccccc1SC` [11(17)], the IC50 amounted to 0.022 µM in assay [1] and 0.047 µM in assay [2].

(Values after patent EP0846119B1, “THIENOPYRIMIDINE DERIVATIVES, THEIR PRODUCTION AND USE AS ENDOTHELIN ANTAGONISTS” (Takeda Chemical Industries, Ltd., priority 1995, dated 1997).)
